Measurements: the NIST ThermoML archive (doi:10.1021/je060271a)
Numbers after ± are expanded uncertainties.

Details: 283.15 K, Liquid, Vibrating tube method

CCCCCC(=O)OCC(COC(=O)CCCCC)(COC(=O)CCCCC)COC(=O)CCCCC [pentaerythritol tetrahexanoate]
Details	mass density [kg/m3]
22895 kPa	1017 ± 1.2
22911 kPa	1016.9 ± 1.2
22928 kPa	1017 ± 1.2
22946 kPa	1017 ± 1.2
22963 kPa	1017 ± 1.2
22982 kPa	1016.9 ± 1.2
22997 kPa	1017.1 ± 1.2
23012 kPa	1016.9 ± 1.2
23030 kPa	1017.2 ± 1.2
23045 kPa	1016.9 ± 1.2
23060 kPa	1017 ± 1.2
23075 kPa	1017 ± 1.2
23093 kPa	1017 ± 1.2
23108 kPa	1017.1 ± 1.2
23124 kPa	1017.1 ± 1.2
23142 kPa	1017.1 ± 1.2
23157 kPa	1017 ± 1.2
23175 kPa	1017 ± 1.2
23191 kPa	1017.1 ± 1.2
23206 kPa	1017.1 ± 1.2
23221 kPa	1017.2 ± 1.2
23240 kPa	1017 ± 1.2
23255 kPa	1017.2 ± 1.2
23274 kPa	1017.3 ± 1.2
23290 kPa	1017.1 ± 1.2
23305 kPa	1017 ± 1.2
23323 kPa	1017.2 ± 1.2
23339 kPa	1017.2 ± 1.2
23354 kPa	1017.2 ± 1.2
23370 kPa	1017.3 ± 1.2
23389 kPa	1017 ± 1.2
23405 kPa	1017.1 ± 1.2
23422 kPa	1017.2 ± 1.2
23437 kPa	1017.2 ± 1.2
23456 kPa	1017.3 ± 1.2
23472 kPa	1017.2 ± 1.2
23488 kPa	1017.3 ± 1.2
23507 kPa	1017.3 ± 1.2
23523 kPa	1017.3 ± 1.2
23539 kPa	1017.3 ± 1.2
23555 kPa	1017.3 ± 1.2
23574 kPa	1017.4 ± 1.2
23590 kPa	1017.3 ± 1.2
23607 kPa	1017.3 ± 1.2
23627 kPa	1017.4 ± 1.2
23640 kPa	1017.5 ± 1.2
23659 kPa	1017.4 ± 1.2
23675 kPa	1017.3 ± 1.2
23691 kPa	1017.3 ± 1.2
23711 kPa	1017.4 ± 1.2
23726 kPa	1017.3 ± 1.2
23746 kPa	1017.4 ± 1.2
23762 kPa	1017.4 ± 1.2
23778 kPa	1017.3 ± 1.2
23794 kPa	1017.3 ± 1.2
23813 kPa	1017.5 ± 1.2
23830 kPa	1017.5 ± 1.2
23849 kPa	1017.4 ± 1.2
23866 kPa	1017.5 ± 1.2
23883 kPa	1017.5 ± 1.2
23902 kPa	1017.5 ± 1.2
23919 kPa	1017.4 ± 1.2
23935 kPa	1017.5 ± 1.2
23951 kPa	1017.5 ± 1.2
23971 kPa	1017.5 ± 1.2
23988 kPa	1017.5 ± 1.2
24004 kPa	1017.5 ± 1.2
24024 kPa	1017.5 ± 1.2
24041 kPa	1017.6 ± 1.2
24061 kPa	1017.6 ± 1.2
24078 kPa	1017.6 ± 1.2
24095 kPa	1017.6 ± 1.2
24111 kPa	1017.6 ± 1.2
24131 kPa	1017.6 ± 1.2
24148 kPa	1017.7 ± 1.2
24185 kPa	1017.6 ± 1.2
24202 kPa	1017.5 ± 1.2
24222 kPa	1017.8 ± 1.2
24239 kPa	1017.6 ± 1.2
24272 kPa	1017.8 ± 1.2
24327 kPa	1017.7 ± 1.2
24364 kPa	1017.7 ± 1.2
24382 kPa	1017.7 ± 1.2
24399 kPa	1017.7 ± 1.2
24419 kPa	1017.6 ± 1.2
24436 kPa	1017.7 ± 1.2
24457 kPa	1017.8 ± 1.2
24474 kPa	1017.8 ± 1.2
24492 kPa	1017.9 ± 1.2
24509 kPa	1017.7 ± 1.2
24530 kPa	1017.9 ± 1.2
24548 kPa	1017.9 ± 1.2
24565 kPa	1017.9 ± 1.2
24586 kPa	1017.7 ± 1.2
24603 kPa	1017.7 ± 1.2
24620 kPa	1017.8 ± 1.2
24641 kPa	1018 ± 1.2
24659 kPa	1017.8 ± 1.2
24676 kPa	1017.9 ± 1.2
24697 kPa	1017.9 ± 1.2
24715 kPa	1017.9 ± 1.2
24733 kPa	1017.8 ± 1.2
24754 kPa	1017.8 ± 1.2
24772 kPa	1018 ± 1.2
24789 kPa	1018 ± 1.2
24810 kPa	1017.9 ± 1.2
24828 kPa	1017.9 ± 1.2
24846 kPa	1017.9 ± 1.2
24867 kPa	1017.9 ± 1.2
24884 kPa	1018 ± 1.2
24903 kPa	1017.8 ± 1.2
24924 kPa	1018 ± 1.2
24942 kPa	1018 ± 1.2
24960 kPa	1018.1 ± 1.2
24981 kPa	1018 ± 1.2
25000 kPa	1018 ± 1.2
25018 kPa	1018 ± 1.2
25037 kPa	1018.1 ± 1.2
25059 kPa	1018.2 ± 1.2
25077 kPa	1018 ± 1.2
25095 kPa	1018.1 ± 1.2
25117 kPa	1018.2 ± 1.2
25135 kPa	1018.2 ± 1.2
25154 kPa	1018.1 ± 1.2
25175 kPa	1018.1 ± 1.2
25194 kPa	1018.1 ± 1.2
25212 kPa	1018.1 ± 1.2
25234 kPa	1018.2 ± 1.2
25253 kPa	1018.2 ± 1.2
25272 kPa	1018.1 ± 1.2
25290 kPa	1018.1 ± 1.2
25309 kPa	1018.2 ± 1.2
25331 kPa	1018.2 ± 1.2
25350 kPa	1018.2 ± 1.2
25372 kPa	1018.2 ± 1.2
25391 kPa	1018.3 ± 1.2
25410 kPa	1018.2 ± 1.2
25428 kPa	1018.2 ± 1.2
25451 kPa	1018.2 ± 1.2
25470 kPa	1018.3 ± 1.2
25489 kPa	1018.2 ± 1.2
25511 kPa	1018.1 ± 1.2
25530 kPa	1018.3 ± 1.2
25553 kPa	1018.2 ± 1.2
25572 kPa	1018.3 ± 1.2
